Reference: ChEMBL document CHEMBL1124522, “Synthesis and antitumor activity of 5-deaza-5,6,7,8-tetrahydrofolic acid and its N10-substituted analogues” (J Med Chem, 1989)
Values joined by “and” are separate entries in the source; they are usually repeats but may differ in a detail not shown here. Equal entries are not always repeated.

What was measured:
CCRF-CEM = assay: Compound was tested for its antitumor activity against human lymphoblastic leukemic cells(CCRF-CEM) in vitro; assay type: functional, cell-based; conditions: Homo sapiens, CCRF-CEM
[1] = biological target: T1, Folylpolyglutamate synthase, mitochondrial (Mus musculus) (UniProt P48760); assay: Apparent catalytic rate folyl-poly-glutamate synthetase
T1 sequence (whole entry): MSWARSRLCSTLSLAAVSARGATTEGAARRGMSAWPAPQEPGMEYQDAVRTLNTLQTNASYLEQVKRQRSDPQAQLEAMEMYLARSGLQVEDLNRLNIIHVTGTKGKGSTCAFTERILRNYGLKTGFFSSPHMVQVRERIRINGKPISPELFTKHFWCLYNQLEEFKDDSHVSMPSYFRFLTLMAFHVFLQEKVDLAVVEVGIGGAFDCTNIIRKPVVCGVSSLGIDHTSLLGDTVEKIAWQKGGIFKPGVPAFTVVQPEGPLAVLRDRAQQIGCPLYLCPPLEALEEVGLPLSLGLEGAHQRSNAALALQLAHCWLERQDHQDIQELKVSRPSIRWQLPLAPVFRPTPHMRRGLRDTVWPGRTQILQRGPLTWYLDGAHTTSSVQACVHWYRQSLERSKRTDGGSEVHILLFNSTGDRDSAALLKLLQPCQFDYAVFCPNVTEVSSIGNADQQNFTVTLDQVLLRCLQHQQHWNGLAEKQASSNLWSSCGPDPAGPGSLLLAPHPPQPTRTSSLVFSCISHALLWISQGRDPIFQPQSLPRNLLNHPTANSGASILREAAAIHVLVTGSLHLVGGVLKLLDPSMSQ

[2] = biological target: T1, Folylpolyglutamate synthase, mitochondrial (Mus musculus); assay: First order catalytic rate folyl-poly-glutamate synthetase
[3] = biological target: T1, Folylpolyglutamate synthase, mitochondrial (Mus musculus); assay: Apparent catalytic rate constants (Km) owas determined from mouse liver Folyl-polyglutamate synthase
[4] = biological target: T1, Folylpolyglutamate synthase, mitochondrial (Mus musculus); assay: First order catalytic rate constants (k) was determined from mouse liver Folyl-polyglutamate synthase
[5] = Percent inhibition against C3H mammary adenocarcinoma at dose 6.25 mg/kg in C3H mice; assay type: functional; conditions: Mus musculus
6C3HED [6] = assay: Percent inhibition against 6C3HED lymphosarcoma at dose 50 mg/kg in C3H mice; assay type: functional, Mus musculus
6C3HED [7] = assay: Percent inhibition against 6C3HED lymphosarcoma at dose 12.5 mg/kg in C3H mice; assay type: functional, Mus musculus
[8] = In vivo anti tumor activity (toxic/total) at dose 25 mg/kg in C3H mice with transplantable murine solid tumor 6C3HED lymphosarcoma, doses administered intraperitoneally on days 1,3,5,7 and 9;Compound was tested on 10 mice.; assay type: functional, Mus musculus; conditions: route intraperitoneal
6C3HED [9] = assay: Percent inhibition against 6C3HED lymphosarcoma at dose 6 mg/kg in C3H mice; assay type: functional; conditions: Mus musculus
[10] = In vivo anti tumor activity (toxic/total) at dose 200 mg/kg in C3H mice with transplantable murine solid tumor 6C3HED lymphosarcoma, doses administered intraperitoneally on days 1,3,5,7 and 9;Compound was tested on 10 mice.; assay type: functional, Mus musculus; conditions: route intraperitoneal
[11] = In vivo antitumor avctivity (Toxic/total) at dose 6 mg/kg in C3H mice with transplantable murine solid tumor 6C3HED lymphosarcoma; Compound was tested on 10 mice.; assay type: functional, Mus musculus
[12] = Percent inhibition against C3H mammary adenocarcinoma at dose 25 mg/kg administered ip on days 1,3,5,7 and 9 in C3H mice; assay type: functional; conditions: Mus musculus, route intraperitoneal
[13] = Percent inhibition against C3H mammary adenocarcinoma at dose 6.25 mg/kg administered ip on days 1,3,5,7 and 9 in C3H mice; assay type: functional; conditions: Mus musculus, route intraperitoneal
[14] = Percent inhibition against C3H mammary adenocarcinoma at dose 100 mg/kg administered ip on days 1,3,5,7 and 9 in C3H mice; assay type: functional; conditions: Mus musculus, route intraperitoneal
[15] = In vivo antitumor avctivity (Toxic/total) at dose 100 mg/kg in C3H mice with transplantable murine solid tumor 6C3HED lymphosarcoma; Compound was tested on 10 mice.; assay type: functional, Mus musculus
[16] = In vivo antitumor avctivity (Toxic/total) at dose 25 mg/kg in C3H mice with transplantable murine solid tumor 6C3HED lymphosarcoma; Compound was tested on 10 mice.; assay type: functional, Mus musculus
[17] = In vivo antitumor activity (toxic/total) at dose 12.5 mg/kg in C3H mice with transplantable murine solid tumor C3H mammary adenocarcinoma, doses administered intraperitoneally on days 1,3,5,7 and 9;Compound was tested on 10 mice.; assay type: functional, Mus musculus; conditions: route intraperitoneal
[18] = Percent inhibition against C3H mammary adenocarcinoma at dose 50 mg/kg administered ip on days 1,3,5,7 and 9 in C3H mice; assay type: functional; conditions: Mus musculus, route intraperitoneal
[19] = Percent inhibition against C3H mammary adenocarcinoma at dose 50 mg/kg in C3H mice;Compound was toxic.; assay type: ADME, organism-based; design: dose 50 mg/kg; conditions: mouse, in vivo
[20] = In vivo antitumor activity (toxic/total) at dose 12.5 mg/kg in C3H mice with transplantable murine solid tumor C3H mammary adenocarcinoma; Compound was tested on 10 mice.; assay type: functional, Mus musculus
[21] = In vivo anti tumor activity (toxic/total) at dose 50 mg/kg in C3H mice with transplantable murine solid tumor 6C3HED lymphosarcoma, doses administered intraperitoneally on days 1,3,5,7 and 9;Compound was tested on 10 mice.; assay type: functional, Mus musculus; conditions: route intraperitoneal
[22] = In vivo antitumor activity (toxic/total) at dose 25 mg/kg in C3H mice with transplantable murine solid tumor C3H mammary adenocarcinoma, doses administered intraperitoneally on days 1,3,5,7 and 9;Compound was tested on 10 mice.; assay type: functional, Mus musculus; conditions: route intraperitoneal
[23] = In vivo antitumor activity (toxic/total) at dose 25 mg/kg in C3H mice with transplantable murine solid tumor C3H mammary adenocarcinoma; Compound was tested on 10 mice.; assay type: functional, Mus musculus
[24] = In vivo antitumor activity (toxic/total) at dose 100 mg/kg in C3H mice with transplantable murine solid tumor C3H mammary adenocarcinoma, doses administered intraperitoneally on days 1,3,5,7 and 9;Compound was tested on 10 mice.; assay type: functional, Mus musculus; conditions: route intraperitoneal
6C3HED [25] = assay: Percent inhibition against 6C3HED lymphosarcoma at dose 100 mg/kg in C3H mice; assay type: functional, Mus musculus
6C3HED [26] = assay: Percent inhibition against 6C3HED lymphosarcoma at dose 25 mg/kg in C3H mice; assay type: functional, Mus musculus
[27] = In vivo antitumor avctivity (Toxic/total) at dose 12.5 mg/kg in C3H mice with transplantable murine solid tumor 6C3HED lymphosarcoma; Compound was tested on 10 mice.; assay type: functional, Mus musculus
[28] = In vivo antitumor activity (toxic/total) at dose 50 mg/kg in C3H mice with transplantable murine solid tumor C3H mammary adenocarcinoma, doses administered intraperitoneally on days 1,3,5,7 and 9;Compound was tested on 10 mice.; assay type: functional, Mus musculus; conditions: route intraperitoneal
[29] = In vivo anti tumor activity (toxic/total) at dose 12.5 mg/kg in C3H mice with transplantable murine solid tumor 6C3HED lymphosarcoma, doses administered intraperitoneally on days 1,3,5,7 and 9;Compound was tested on 10 mice.; assay type: functional, Mus musculus; conditions: route intraperitoneal
[30] = In vivo antitumor avctivity (Toxic/total) at dose 50 mg/kg in C3H mice with transplantable murine solid tumor 6C3HED lymphosarcoma; Compound was tested on 10 mice.; assay type: functional, Mus musculus
[31] = In vivo anti tumor activity (toxic/total) at dose 100 mg/kg in C3H mice with transplantable murine solid tumor 6C3HED lymphosarcoma, doses administered intraperitoneally on days 1,3,5,7 and 9;Compound was tested on 9 mice.; assay type: functional, Mus musculus; conditions: route intraperitoneal
[32] = Percent inhibition against C3H mammary adenocarcinoma at dose 25 mg/kg in C3H mice;Compound was toxic.; assay type: ADME, organism-based; design: dose 25 mg/kg; conditions: mouse, in vivo
[33] = In vivo antitumor activity (toxic/total) at dose 6.25 mg/kg in C3H mice with transplantable murine solid tumor C3H mammary adenocarcinoma, doses administered intraperitoneally on days 1,3,5,7 and 9;Compound was tested on 10 mice.; assay type: functional, Mus musculus; conditions: route intraperitoneal
[34] = In vivo antitumor activity (toxic/total) at dose 50 mg/kg in C3H mice with transplantable murine solid tumor C3H mammary adenocarcinoma; Compound was tested on 10 mice.; assay type: functional, Mus musculus
[35] = Percent inhibition against C3H mammary adenocarcinoma at dose 12.5 mg/kg administered ip on days 1,3,5,7 and 9 in C3H mice; assay type: functional; conditions: Mus musculus, route intraperitoneal
6C3HED [36] = assay: Percent inhibition against 6C3HED lymphosarcoma at dose 200 mg/kg in C3H mice; assay type: functional; conditions: Mus musculus
[37] = In vivo antitumor activity (toxic/total) at dose 6.25 mg/kg in C3H mice with transplantable murine solid tumor C3H mammary adenocarcinoma; Compound was tested on 10 mice.; assay type: functional, Mus musculus
[38] = biological target: T1, Folylpolyglutamate synthase, mitochondrial (Mus musculus); assay: Apparent catalytic rate constants (Km) was determined from mouse liver Folyl-polyglutamate synthase

## CN(CC1CNc2nc(N)nc(O)c2C1)c1ccc(C(=O)N[C@@H](CCC(=O)O)C(=O)O)cc1 (stereo partly drawn)
CCRF-CEM
  IC50: 40 nM

## CC(=O)N(CC1CNc2nc(N)nc(O)c2C1)c1ccc(C(=O)N[C@@H](CCC(=O)O)C(=O)O)cc1 (stereo partly drawn)
CCRF-CEM
  IC50: 600 nM

## Nc1nc(=O)c2nc(CNc3ccc(C(=O)N[C@@H](CCC(=O)O)C(=O)O)cc3)cnc2[nH]1
[1]
  Km app: 140 µM
[2]
  k: 1

## Nc1nc(N)c2nc(CNc3ccc(C(=O)N[C@@H](CCC(=O)O)C(=O)O)cc3)cnc2n1
[3]
  Km app: 21 µM
[4]
  k: 10.1

## Nc1nc(O)c2c(n1)NCC(CNc1ccc(C(=O)N[C@@H](CCC(=O)O)C(=O)O)cc1)C2 (stereo in doubt; 7a) [listing 1 of 2 here]
[5]
  inhibition in vivo at 6.25 mg/kg: 96%
6C3HED [6]
  Inhibition: 100% and 74%
6C3HED [7]
  Inhibition: 100% and 34%
[8]
  tox/total: 0
6C3HED [9]
  inhibition in vivo at 6 mg/kg: 77%
[10]
  tox/total: 3
[11]
  tox/total: 0
[12]
  inhibition in vivo at 25 mg/kg: 64%
[13]
  inhibition in vivo at 6.25 mg/kg: 50%
[14]
  inhibition in vivo at 100 mg/kg: 94%
[15]
  tox/total: 9
[16]
  tox/total: 3
[17]
  tox/total: 0
[18]
  inhibition in vivo at 50 mg/kg: 81%
[19]
  Inhibition: Toxic
[20]
  tox/total: 10
[21]
  tox/total: 0
[22]
  tox/total: 0
[23]
  tox/total: 10
[24]
  tox/total: 0
CCRF-CEM
  IC50: 10 nM
6C3HED [25]; 100 mg/kg
  Inhibition: 93%
6C3HED [25]; Mus musculus, 6C3HED
  inhibition in vivo at 100 mg/kg: 100%
6C3HED [26]
  Inhibition: 100% and 51%
[27]
  tox/total: 1
[28]
  tox/total: 0
[29]
  tox/total: 0
[30]
  tox/total: 6
[31]
  tox/total: 0
[32]
  Inhibition: Toxic
[33]
  tox/total: 0
[34]
  tox/total: 10
[35]
  inhibition in vivo at 12.5 mg/kg: 61%
6C3HED [36]
  inhibition in vivo at 200 mg/kg: 98%
[37]
  tox/total: 3

## Nc1nc(O)c2c(n1)NCC(CNc1ccc(C(=O)N[C@@H](CCC(=O)O)C(=O)O)cc1)C2 (stereo in doubt; 7a) [listing 2 of 2 here]
[38]
  Km app: 1.06 µM
[4]
  k: 170
